In patent US20210038515A1 (Azurity Pharmaceuticals, Inc., priority 2014, published 2021):

Test system: Clostridium difficile
Assay: Agar dilution MIC of vancomycin preparations (Sigma, Cutis), diluent, Na benzoate and Na citrate
Assay type: cell-based
Conditions: for MIC, AV (average): average of triplicate; for MIC, VAN-1: replicate 1; for MIC, VAN-2: replicate 2; for MIC, VAN-3: replicate 3
Description: Introduction: The purpose of the study was to compare the MICs obtained with the formulation of vancomycin HCL of the invention (Cutis) to formulations obtained using a vancomycin HCL reference standard powder obtained from Sigma. The Example also involves the analysis of a solution or diluent to determine if it has antimicrobial activity at the concentrations present in the agar dilution test.
The C. difficile were tested by agar dilution according to the procedures in the Clinical and Laboratory Standards Institute. 2012. Methods for antimicrobial susceptibility testing of anaerobic bacteria; approved standard-seventh edition.
Other anaerobic organisms included clinical isolates of Bifidobacterium adolescentis and Bacteroides fragilis. Clostridium difficile ATCC 700057 was included as a quality control strain.
The C. difficile isolates were recovered from patients with CDI during the past two years and stored at −70° C. in 20% skim milk. Ribotyping was performed by another reference laboratory. The strains were taken from the freezer and subcultured at least twice to ensure purity and good growth.
On the day of testing, they were suspended in Brucella broth to the turbidity of the 0.5 McFarland standard for testing.
Stock solution of the Sigma vancomycin was prepared in water and stored at −70° C. On the day of testing, it was thawed and further diluted in water to obtain the desired range of 16-0.125 μg/ml. The Cutis vancomycin (25 mg/ml) was reconstituted on the day of testing and further diluted for a final range of 16-0.125 μg/ml in the test. The antimicrobials were added to molten Brucella agar supplemented with vitamin K and hemin to prepare the plates. Drug-free growth controls were included for testing before and after each set of plates. All testing was done in triplicate.
The organisms were pipetted into the wells of the Steers replicator head and applied to the plates with the multi-pronged replicator. The final concentration of organisms was ˜10^5 CFU/spot.
The plates were incubated in the anaerobic chamber incubator for 44 h and examined for growth.
The Cutis diluent comprises: water, about 0.12% (w/v) citric acid (anhydrous), 0.2% (w/v) sucralose, about 0.05% (w/v) artificial grape flavor, 0.1% (w/v) sodium benzoate, about 0.0002% (w/v) D&C Yellow No. 10 and about 0.000038% (w/v) FD&C Red No. 40.

CN[C@H](CC(C)C)C(=O)N[C@H]1C(=O)N[C@@H](CC(N)=O)C(=O)N[C@H]2C(=O)N[C@H]3C(=O)N[C@H](C(=O)N[C@H](C(=O)O)c4cc(O)cc(O)c4-c4cc3ccc4O)[C@H](O)c3ccc(c(Cl)c3)Oc3cc2cc(c3O[C@@H]2O[C@H](CO)[C@@H](O)[C@H](O)[C@H]2O[C@H]2C[C@](C)(N)[C@H](O)[C@H](C)O2)Oc2ccc(cc2Cl)[C@H]1O.Cl [Sigma]
1.7 µg/mL: MIC, AV (average) (RMA 26381, ribotype 017) | MIC, AV (average) (RMA 26451, ribotype 001) | MIC, AV (average) (RMA 26466, ribotype 020) | MIC, AV (average) (RMA 26572, ribotype 017)
2 µg/mL: MIC, VAN-1 (RMA 26381, ribotype 017) | MIC, VAN-2 (RMA 26381, ribotype 017) | MIC, AV (average) (RMA 26445, ribotype 017) | MIC, VAN-1 (RMA 26445, ribotype 017) | MIC, VAN-2 (RMA 26445, ribotype 017) | MIC, VAN-3 (RMA 26445, ribotype 017) | MIC, AV (average) (RMA 26447, ribotype 001) | MIC, VAN-1 (RMA 26447, ribotype 001) | MIC, VAN-2 (RMA 26447, ribotype 001) | MIC, VAN-3 (RMA 26447, ribotype 001) | MIC, VAN-1 (RMA 26451, ribotype 001) | MIC, VAN-2 (RMA 26451, ribotype 001) | MIC, VAN-2 (RMA 26461, ribotype 106) | MIC, VAN-2 (RMA 26463, ribotype 002) | MIC, VAN-1 (RMA 26466, ribotype 020) | MIC, VAN-2 (RMA 26466, ribotype 020) | MIC, VAN-2 (RMA 26467, ribotype 002) | MIC, AV (average) (RMA 26471, ribotype 001) | MIC, VAN-1 (RMA 26471, ribotype 001) | MIC, VAN-2 (RMA 26471, ribotype 001) | MIC, VAN-3 (RMA 26471, ribotype 001) | MIC, VAN-1 (RMA 26485, ribotype 078) | MIC, VAN-2 (RMA 26494, ribotype 126) | MIC, AV (average) (RMA 26544, ribotype 078) | MIC, VAN-1 (RMA 26544, ribotype 078) | MIC, VAN-2 (RMA 26544, ribotype 078) | MIC, VAN-3 (RMA 26544, ribotype 078) | MIC, VAN-1 (RMA 26572, ribotype 017) | MIC, VAN-2 (RMA 26572, ribotype 017)
1.3 µg/mL: MIC, AV (average) (RMA 26461, ribotype 106) | MIC, AV (average) (RMA 26463, ribotype 002) | MIC, AV (average) (RMA 26467, ribotype 002) | MIC, AV (average) (RMA 26485, ribotype 078) | MIC, AV (average) (RMA 26494, ribotype 126)
4 µg/mL: MIC, VAN-1 (RMA 24690, ribotype 027) | MIC, VAN-2 (RMA 24690, ribotype 027) | MIC, AV (average) (RMA 26443, ribotype 027) | MIC, VAN-1 (RMA 26443, ribotype 027) | MIC, VAN-2 (RMA 26443, ribotype 027) | MIC, VAN-3 (RMA 26443, ribotype 027)
5.3 µg/mL: MIC, AV (average) (RMA 24690, ribotype 027)
8 µg/mL: MIC, VAN-3 (RMA 24690, ribotype 027)
1 µg/mL: MIC, VAN-3 (RMA 26381, ribotype 017) | MIC, AV (average) (RMA 26442, ribotype 017) | MIC, VAN-1 (RMA 26442, ribotype 017) | MIC, VAN-2 (RMA 26442, ribotype 017) | MIC, VAN-3 (RMA 26442, ribotype 017) | MIC, AV (average) (RMA 26446, ribotype 027) | MIC, VAN-1 (RMA 26446, ribotype 027) | MIC, VAN-2 (RMA 26446, ribotype 027) | MIC, VAN-3 (RMA 26446, ribotype 027) | MIC, VAN-3 (RMA 26451, ribotype 001) | MIC, AV (average) (RMA 26455, ribotype 027) | MIC, VAN-1 (RMA 26455, ribotype 027) | MIC, VAN-2 (RMA 26455, ribotype 027) | MIC, VAN-3 (RMA 26455, ribotype 027) | MIC, AV (average) (RMA 26457, ribotype 027) | MIC, VAN-1 (RMA 26457, ribotype 027) | MIC, VAN-2 (RMA 26457, ribotype 027) | MIC, VAN-3 (RMA 26457, ribotype 027) | MIC, VAN-1 (RMA 26461, ribotype 106) | MIC, VAN-3 (RMA 26461, ribotype 106) | MIC, VAN-1 (RMA 26463, ribotype 002) | MIC, VAN-3 (RMA 26463, ribotype 002) | MIC, VAN-3 (RMA 26466, ribotype 020) | MIC, VAN-1 (RMA 26467, ribotype 002) | MIC, VAN-3 (RMA 26467, ribotype 002) | MIC, AV (average) (RMA 26472, ribotype 014) | MIC, VAN-1 (RMA 26472, ribotype 014) | MIC, VAN-2 (RMA 26472, ribotype 014) | MIC, VAN-3 (RMA 26472, ribotype 014) | MIC, AV (average) (RMA 26480, ribotype 106) | MIC, VAN-1 (RMA 26480, ribotype 106) | MIC, VAN-2 (RMA 26480, ribotype 106) | MIC, VAN-3 (RMA 26480, ribotype 106) | MIC, AV (average) (RMA 26484, ribotype 106) | MIC, VAN-1 (RMA 26484, ribotype 106) | MIC, VAN-2 (RMA 26484, ribotype 106) | MIC, VAN-3 (RMA 26484, ribotype 106) | MIC, VAN-2 (RMA 26485, ribotype 078) | MIC, VAN-3 (RMA 26485, ribotype 078) | MIC, AV (average) (RMA 26489, ribotype 176) | MIC, VAN-1 (RMA 26489, ribotype 176) | MIC, VAN-2 (RMA 26489, ribotype 176) | MIC, VAN-3 (RMA 26489, ribotype 176) | MIC, VAN-1 (RMA 26494, ribotype 126) | MIC, VAN-3 (RMA 26494, ribotype 126) | MIC, AV (average) (RMA 26500, ribotype 014) | MIC, VAN-1 (RMA 26500, ribotype 014) | MIC, VAN-2 (RMA 26500, ribotype 014) | MIC, VAN-3 (RMA 26500, ribotype 014) | MIC, AV (average) (RMA 26503, ribotype 014) | MIC, VAN-1 (RMA 26503, ribotype 014) | MIC, VAN-2 (RMA 26503, ribotype 014) | MIC, VAN-3 (RMA 26503, ribotype 014) | MIC, AV (average) (RMA 26543, ribotype 078) | MIC, VAN-1 (RMA 26543, ribotype 078) | MIC, VAN-2 (RMA 26543, ribotype 078) | MIC, VAN-3 (RMA 26543, ribotype 078) | MIC, AV (average) (RMA 26563, ribotype 018) | MIC, VAN-1 (RMA 26563, ribotype 018) | MIC, VAN-2 (RMA 26563, ribotype 018) | MIC, VAN-3 (RMA 26563, ribotype 018) | MIC, VAN-3 (RMA 26572, ribotype 017)
